Measurements published in paper PMC12267067, “Targeting GRPR for sex hormone-dependent cancer after loss of E-cadherin” (Nature, 2025).
No end group written: not given here.

Assays:
[1] = system: mouse melanoma cell lines (1057, 1064, 1181, 1014); assay: Cell growth (cell counting), mouse melanoma cell lines; format: cell-based; conditions: 48 h
Protocol: Six-well tissue-culture plates were seeded with 3 × 10^5 melanoma cells in complete medium. After 24 h, the medium was replaced by low-serum medium (0.5% for murine melanoma cell lines and 1% for human melanoma cells) and the cells were incubated for a further 18 h before stimulation with 10 nM GRP (4011670 bachem) and/or 1 µM RC (R9653, Sigma-Aldrich) for 48 h. The plates were trypsinized just after stimulation or 48 h later and the cells were counted. For the MTT assay, 10,000 cells were seeded per well in 96-well plates. After 24 h, cells were starved overnight and then treated with 10 nM GRP and/or 1 µM RC for 48 h in low-serum medium (0.5% FBS). Next, MTT (M5655, Sigma-Aldrich) was added to the wells to a final concentration of 0.5 mg ml^−1 and the plates were incubated for 3 h. The medium was removed and formazan crystals dissolved in 200 µl DMSO. The absorbance was read at 570 nm using a LUMIstar Omega […] (BMG Labtech). All growth experiments were done using three technical replicates and three biological replicates. For the clonogenic assay, six-well tissue-culture plates were seeded with 500 cells in complete medium. After 10 days (20 days for 1181), colonies were fixed with 4% PFA for 15 min and stained with 10% crystal violet in ethanol for 20 min and counted in images using ImageJ software. Experiments were done in triplicate.

[2] = system: human melanoma cells (MDA-MB-435S); assay: Anoikis assay, human melanoma cells; format: cell-based; conditions: 10 nM GRP and/or 1 µM RC, 48 h, poly-HEMA, low serum, annexin V/7-AAD
Protocol: Six-well plates were coated with poly-HEMA to prevent cell attachment to the well surface. Cells were seeded in low-serum medium containing 10 nM GRP and/or 1 µM RC. Then, 48 hours after cell seeding, cells were collected and washed with ice-cold PBS twice and resuspended in annexin V binding buffer (556454, BD Biosciences) and incubated at room temperature in the dark with 7-amino-actinomycin D (7-AAD, 559925, BD Biosciences) and annexin-V for 15 min. Annexin V was coupled to FITC (556420, BD Biosciences) for the 1057 and MDA-MB-435S cell lines and to PE (556421, BD Biosciences) for the other cell lines. Cells were sorted using a FACS LSRFortessa (BD Biosciences) to determine the percentage of annexin V- and/or 7-AAD-positive cells using a 488 nm laser for annexin V-FITC and annexin V-PE and a 675 nm laser for7-AAD. All quantification was performed using Flow-Jo.

[3] = system: YAP1 activation signature; assay: YAP1 activation signature (GSEA) and Yap1 score by RNA-seq, murine melanoma cell lines; format: cell-based, mouse; conditions: 4 h, 10 nM GRP
Protocol: The transcriptome, copy-number alteration, mutations and corresponding clinical data of the TCGA–SKCM (n = 473), TCGA–BRCA (n = 1,215), TCGA–STAD (n = 450), TCGA–LUSC (n = 553) and TCGA–KIRC (n = 606) datasets were retrieved from the National Cancer Institute Genomic Data Commons repository using the TCGAbiolinks R package in August 2022 (ref. [51]). The mRNA levels were calculated from RNA-sequencing read counts using RNA-Seq V2 RSEM and normalized to TPM. Expression of CDH1, CCND1, BRAF and KRAS was modelled over time using LOWESS smoothing with 1,860 points. Expression levels from acral melanoma were retrieved from GEO under accession number GSE162682. Survival analyses were carried out by separating the cohort into two groups according to gene expression. The threshold was set to 1 TPM, commonly considered to be the limit for sufficient protein expression of the transcript. The negative group was set to an expression 0.1 TPM or less to have clear separation in terms of expression (factor 10) from the positive group. The YAP and melanoma phenotypic state scores were obtained by averaging the expression of detailed marker genes, or for the mice, from their murine orthologues as described in ref. [52]. The pigmentation state was defined by the expression of MITF, MLANA, TRPM1, DCT and TYR; the starved-like melanoma cell phenotype by the expression of CD36, DLX5, IP6K3, PAX3 and TRIM67; the invasive state by the expression of AXL, CYR61, TCF4, LOXL2, TNC and WNT5A; and the neural crest cell-like phenotypic state by the expression of AQP1, GFRA2, L1CAM, NGFR, SLC22A17 and TMEM176B[52]. The scoring of YAP1 activation was determined from the expression of CYR61, CTGF, TEAD4, LATS2 and CRIM1. Yap scoring was obtained by averaging the fold change of each Yap1 target. The anoikis-resistance score was calculated on the basis of the expression of S100A7A, MTPN, ATP10B, S100A8, RSAD2, RENBP, CDHR1 and CD36. The ER-activation score was calculated according to the expressions of GATA4, SDK2, EGR3, IL19, GSG1L, RSPO1, PGR, IL24 and PDZK1. Expression data from human and mouse normal tissue were downloaded from the Human Protein Atlas (https://www.proteinatlas.org/) and from the EBI expression atlas (https://www.ebi.ac.uk/gxa/home), respectively, both accessed on 7 October 2022. The anatogram was generated using the gganatogram R package.
RNA was extracted from cells and mouse tumours using the miRNeasy kit (Qiagen, 217004), according to the manufacturer’s protocol. RNA integrity (RIN) was measured using an Agilent Bioanalyser 2100 (Agilent Technologies) and an RNA nano 6000 kit (5067-1511, Agilent Technologies). Only RNA with an RNA integrity number (RIN) of more than 7 was used for analysis. This threshold led to the sequencing of 72 mouse melanoma cell lines, 36 human melanoma cell lines and 32 mouse tumours. RNA concentrations were measured using a NanoDrop (NanoDrop Technologies). […] The libraries were equimolarly pooled and subjected to qPCR quantification using the KAPA library quantification kit (Roche). Sequencing was carried out on a NovaSeq 6000 instrument (Illumina) based on a 2 × 100 cycle mode (paired-end reads, 100 bases) using an S1 flow cell to obtain approximately 35 million clusters (70 million raw paired-end reads) per sample. Reads were mapped to the mm10 mouse reference genome (gencode m13 version-GRCm38.p5) or hg38 human reference genome (gencode 42 version-GRCh38.p13) using STAR[60]. […]

## GRP: GRPR's natural agonist, endogenous ligand of GRPR (4011670 bachem) (VPLPAGGGTVLTKMYPRGNHWAVGHLM; not fully specified; ends and bridges not checked; UniProt P07492 24-50, looked up)
[1]; 1057 and 1064, 10 nM GRP and/or 1 µM RC, low serum 0.5%
  cell growth, GRPR-positive mouse lines: promoted growth
[1]; 1181 and 1014, 10 nM GRP, low serum
  cell growth, GRPR-negative mouse cells: had no effect
[2]
  anoikis resistance (apoptotic cells without matrix attachment), GRPR+ human cells: promoted
[3]; 1014-Ct, female Ecad, Grpr-negative, FDR 0.585
  GSEA YAP activation, GRP vs. Mock: NES: 0.936
[3]; 1014-Grpr, female Ecad, FDR <0.0001
  GSEA YAP activation, GRP vs. Mock: NES: 2.77
[3]; 1064-par, female ΔEcad, FDR <0.0001
  GSEA YAP activation, GRP vs. Mock: NES: 2.34
[3]; 1181-Ct, male Ecad, Grpr-negative, FDR 0.986
  GSEA YAP activation, GRP vs. Mock: NES: 0.527
[3]; 1181-Grpr, male Ecad, FDR 0.003
  GSEA YAP activation, GRP vs. Mock: NES: 1.66
